Among the data in patent publication US8338565B2, “Macrocyclic compounds for inhibition of tumor necrosis factor alpha” (Ensemble Therapeutics Corporation, priority 2008, dated 2012) are IC50 values, retold here.

Numbered stars: 1 amine (or outer) side, 2 acyl side, 3 side chain; on linkers, the order of the positions; unused ones are H or OH. Bridge positions count the residues as written; N and C are the ends. Square brackets hold non-standard residues; d marks the D form. Peptide text beside a SMILES is read from it. * marks the point of attachment. Tartaroyl(2R,3R-(OAc)2) = CC(=O)O[C@@H](C(=O)[*:1])[C@@H](OC(C)=O)C(=O)[*:2]; Phe(4-CF3) = N[C@@H](Cc1ccc(C(F)(F)F)cc1)C(=O)O; dPhe(3-CF3) = N[C@H](Cc1cccc(C(F)(F)F)c1)C(=O)O; Phe(4-COOH) = N[C@@H](Cc1ccc(C(=O)O)cc1)C(=O)O; dPhe(2-CF3) = N[C@H](Cc1ccccc1C(F)(F)F)C(=O)O; Bip = N[C@@H](Cc1ccc(-c2ccccc2)cc1)C(=O)O; dPhe(4-NH2) = Nc1ccc(C[C@@H](N)C(=O)O)cc1; Phe(4-NH2) = Nc1ccc(C[C@H](N)C(=O)O)cc1; dAla(2-furyl) = N[C@H](Cc1ccco1)C(=O)O; Lys(Me2) = CN(C)CCCC[C@H](N)C(=O)O; d(hPhe) = N[C@H](CCc1ccccc1)C(=O)O; 3Pal = N[C@@H](Cc1cccnc1)C(=O)O; 2Thi = N[C@@H](Cc1cccs1)C(=O)O; Cha = N[C@@H](CC1CCCCC1)C(=O)O; d2Thi = N[C@H](Cc1cccs1)C(=O)O; dCha = N[C@H](CC1CCCCC1)C(=O)O; Suc = O=C(CCC(=O)[*:2])[*:1]; X2 = O=C(O)[C@H]1CCCN(*)C1; GABA = NCCCC(=O)O Some results are limits rather than exact numbers.

T1 sequence (P01375 77-233 limits assumed, species assumed): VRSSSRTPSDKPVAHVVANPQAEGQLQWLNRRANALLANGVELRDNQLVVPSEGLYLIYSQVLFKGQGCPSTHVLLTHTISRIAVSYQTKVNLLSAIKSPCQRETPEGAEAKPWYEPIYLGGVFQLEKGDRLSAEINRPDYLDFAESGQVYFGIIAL

One assay addresses T1, TNFα / TNFα receptor (TNFα R1/Fc) (Homo sapiens, UniProt P01375).
T1 construct: purchased R&D Systems
In words: Inhibition of binding of TNFα to the TNFα receptor (plate ELISA competition). As to conditions: Activity (IC50, inhibition of TNFα binding to TNFα R1/Fc), Table 2. In a few lines:
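Plates were coated with TNFα at 15 nM. Test compound and 8.33 nM receptor-Fc (PBST, 2% DMSO) were first mixed in solution for 30 min at room temperature, then transferred to the plates for another 30 min. Competition was read by absorbance at 450 nm after HRP anti-human IgG Fc detection with TMB.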
In general terms: In an ELISA, binding on a coated surface is turned into a signal by an enzyme label.
`O=C1COc2ccc(cc2)C[C@H](C(=O)N[C@H](CCc2ccccc2)C(=O)O)NC(=O)[C@H](Cc2c[nH]c3ccccc23)NC(=O)[C@@H](Cc2ccc(-c3ccccc3)cc2)NC(=O)[C@H](Cc2ccncc2)N1` [Compound 740] had an IC50 of 10 to 30 µM.

`O=C1COc2ccc(cc2)C[C@@H](C(=O)N[C@H](CCc2ccccc2)C(=O)O)NC(=O)[C@H](Cc2c[nH]c3ccccc23)NC(=O)[C@@H](Cc2ccc(-c3ccccc3)cc2)NC(=O)[C@H](Cc2ccncc2)N1` [Compound 745]: the IC50 lay in the range of 10 to 30 µM.

In the case of `O=C1COc2ccc(cc2)C[C@@H](C(=O)N[C@H](CCc2ccccc2)C(=O)O)NC(=O)[C@H](CCc2ccccc2)NC(=O)[C@@H](Cc2ccc(-c3ccccc3)cc2)NC(=O)[C@H](Cc2c[nH]c3ccccc23)N1` [Compound 743], the IC50 is below 10 µM.

Staying with this assay, now noted: Table 2; read-out: Activity (IC50, inhibition of TNFα binding to TNFα R1/Fc).
For the compound `O=C1CCC(=O)N[C@H](Cc2cccs2)C(=O)N[C@@H](Cc2ccc(-c3ccccc3)cc2)C(=O)N[C@H](Cc2ccccc2)C(=O)N[C@H](C(=O)N2CCC[C@H](C(=O)O)C2)Cc2ccc(cc2)N1` [Compound 37] ([d2Thi][Bip][dF][Phe(4-NH2)]-X2; linker N-4 via Suc), the IC50 is above 100 µM.

In the case of `O=C1COc2ccc(cc2)C[C@@H](C(=O)O)NC(=O)[C@@H](CCc2ccccc2)NC(=O)[C@H](Cc2ccc(-c3ccccc3)cc2)NC(=O)[C@@H](Cc2cccc(C(F)(F)F)c2)N1` [Compound 520], the IC50 was below 10 µM.

In the case of `O=C1CCC(=O)N[C@H](Cc2cccs2)C(=O)N[C@@H](Cc2ccc(-c3ccccc3)cc2)C(=O)N[C@H](Cc2cccc(C(F)(F)F)c2)C(=O)N[C@H](C(=O)O)Cc2ccc(cc2)N1` [Compound 78] ([d2Thi][Bip][dPhe(3-CF3)][Phe(4-NH2)]-OH; linker N-4 via Suc), the IC50 was above 100 µM.

Consider `O=C(O)CCNC(=O)[C@@H]1Cc2ccc(cc2)OCC(=O)N[C@@H](Cc2cccs2)C(=O)N[C@H](Cc2ccc(-c3ccccc3)cc2)C(=O)N[C@@H](CCc2ccccc2)C(=O)N1` [Compound 475], for which the IC50 was below 10 µM.

On to `O=C1COc2ccc(cc2)C[C@@H](C(=O)O)NC(=O)[C@H](CCc2ccccc2)NC(=O)[C@@H](Cc2ccc(-c3ccccc3)cc2)NC(=O)[C@H](Cc2cccc3ccccc23)N1` [Compound 694], for which the IC50 is below 10 µM.

For the compound `O=C1N[C@H](Cc2ccco2)C(=O)N[C@@H](C(=O)O)Cc2ccc(cc2)NC(=O)[C@H](O)[C@@H](O)C(=O)N[C@H](Cc2cccs2)C(=O)N[C@H]1Cc1ccc(Br)cc1` [Compound 155], the IC50 is above 100 µM.

Take `O=C1CCC(=O)N[C@H](Cc2ccco2)C(=O)N[C@@H](Cc2ccc(-c3ccccc3)cc2)C(=O)N[C@H](Cc2ccccc2)C(=O)N[C@H](C(=O)O)Cc2ccc(cc2)N1` [Compound 123] ([dAla(2-furyl)][Bip][dF][Phe(4-NH2)]-OH; linker N-4 via Suc): the IC50 was 30 to 100 µM.

As for `O=C1COc2ccc(cc2)C[C@@H](C(=O)O)NC(=O)[C@@H](CCc2ccccc2)NC(=O)[C@H](Cc2ccc(-c3ccc(C(=O)OCc4ccccc4)cc3)cc2)NC(=O)[C@@H](Cc2cccs2)N1` [Compound 526], the IC50 is above 100 µM.

Consider `O=C1COc2ccc(cc2)C[C@@H](C(=O)O)NC(=O)[C@H](Cc2ccccc2)NC(=O)[C@H](Cc2ccc(-c3ccccc3)cc2)NC(=O)[C@@H](Cc2cccs2)N1` [Compound 213], for which the IC50 was above 100 µM.

For the compound `O=C1CCC(=O)N[C@@H](CC2CCCCC2)C(=O)N[C@@H](Cc2ccc(-c3ccccc3)cc2)C(=O)N[C@H](CCc2ccccc2)C(=O)N[C@H](C(=O)O)Cc2ccc(cc2)N1` [Compound 191] ([Cha][Bip][d(hPhe)][Phe(4-NH2)]-OH; linker N-4 via Suc), the IC50 is below 10 µM.

Take `O=C1CCC(=O)N[C@H](Cc2cccs2)C(=O)N[C@@H](Cc2ccc(-c3ccccc3)cc2)C(=O)N[C@@H](Cc2cccnc2)C(=O)N[C@H](C(=O)O)Cc2ccc(cc2)N1` [Compound 52] ([d2Thi][Bip][3Pal][Phe(4-NH2)]-OH; linker N-4 via Suc): the IC50 is above 100 µM.

Consider `O=C(O)C[C@H]1NC(=O)[C@H](Cc2ccc(-c3ccccc3)cc2)NC(=O)[C@@H](Cc2cccs2)NC(=O)CCC(=O)Nc2ccc(cc2)C[C@@H](C(=O)O)NC1=O` [Compound 65] ([d2Thi][Bip][dD][Phe(4-NH2)]-OH; linker N-4 via Suc), for which the IC50 is above 100 µM.

Regarding `O=C1CCC(=O)N[C@H](Cc2cccs2)C(=O)N[C@@H](Cc2ccc(-c3ccccc3)cc2)C(=O)N[C@H](Cc2ccccc2)C(=O)N[C@H](C(=O)N2CCC[C@H]2C(=O)O)Cc2ccc(cc2)N1` [Compound 199] ([d2Thi][Bip][dF][Phe(4-NH2)]P-OH; linker N-4 via Suc), the IC50 was above 100 µM.

On to `O=C1COc2ccc(cc2)C[C@H](C(=O)N[C@H](CCc2ccccc2)C(=O)O)NC(=O)[C@H](Cc2c[nH]c3ccccc23)NC(=O)[C@@H](Cc2ccc(-c3ccccc3)cc2)NC(=O)[C@H](Cc2c[nH]c3ccccc23)N1` [Compound 739], for which the IC50 was below 10 µM.

With `O=C1CCC(=O)N[C@H](CCc2ccccc2)C(=O)N[C@@H](Cc2ccc(C(F)(F)F)cc2)C(=O)N[C@H](Cc2ccccc2)C(=O)N[C@H](C(=O)O)Cc2ccc(cn2)N1` [Compound 548], the IC50 lay within 30 to 100 µM.

`O=C(O)[C@@H]1Cc2ccc(cc2)NC(=O)[C@H](O)[C@@H](O)C(=O)N[C@H](Cc2cccs2)C(=O)N[C@@H](Cc2ccc(-c3cccc(O)c3)cc2)C(=O)N[C@H](Cc2ccccc2)C(=O)N1` [Compound 188]: the IC50 was above 100 µM.

As to `O=C1CCC(=O)N[C@@H](Cc2cccs2)C(=O)N[C@@H](Cc2ccc(-c3ccccc3)cc2)C(=O)N[C@@H](Cc2ccccc2)C(=O)N[C@H](C(=O)O)Cc2ccc(cc2)N1` [Compound 495] ([2Thi][Bip]F[Phe(4-NH2)]-OH; linker N-4 via Suc), the IC50 was above 100 µM.

As for `O=C1COc2ccc(cc2)C[C@@H](C(=O)N[C@@H](CCc2ccccc2)C(=O)O)NC(=O)[C@H](CCc2ccccc2)NC(=O)[C@@H](Cc2ccc(-c3ccccc3)cc2)NC(=O)[C@H](Cc2ccc(-c3ccncc3)cc2)N1` [Compound 623], the IC50 is below 10 µM.

On to `O=C1COc2ccc(cc2)C[C@@H](C(=O)O)NC(=O)[C@H](Cc2ccccc2F)NC(=O)[C@@H](Cc2ccc(-c3ccccc3)cc2)NC(=O)[C@H](Cc2c[nH]c3ccccc23)N1` [Compound 733], for which the IC50 was below 10 µM.

With `NCCCC[C@H](NC(=O)[C@@H]1Cc2ccc(cc2)NC(=O)[C@H](O)[C@@H](O)C(=O)N[C@H](Cc2cccs2)C(=O)N[C@@H](Cc2ccc(-c3ccccc3)cc2)C(=O)N[C@H](Cc2ccccc2)C(=O)N1)C(=O)O` [Compound 296], the IC50 fell in the range of 30 to 100 µM.

Regarding `CN(C)CCCC[C@@H]1NC(=O)[C@@H](Cc2cccs2)NC(=O)CCC(=O)Nc2ccc(cc2)C[C@@H](C(=O)O)NC(=O)[C@@H](Cc2ccccc2)NC1=O` [Compound 203] ([d2Thi][Lys(Me2)][dF][Phe(4-NH2)]-OH; linker N-4 via Suc), the IC50 was above 100 µM.

Regarding `O=C1COc2ccc(cc2)C[C@@H](C(=O)N[C@@H](Cc2ccccc2)C(=O)O)NC(=O)[C@H](CCc2ccccc2)NC(=O)[C@@H](Cc2ccc(-c3ccccc3)cc2)NC(=O)[C@H](Cc2ccc(-c3ccccc3)cc2)N1` [Compound 574], the IC50 was above 100 µM.

With `O=C1COc2ccc(cc2)C[C@@H](C(=O)O)NC(=O)[C@@H](CCc2ccccc2)NC(=O)[C@H](Cc2ccc(-c3ccccc3)cc2)NC(=O)[C@@H](Cc2cccs2)N1` [Compound 145], the IC50 was in the range of 10 to 30 µM.

In the case of `CC(C)(C)Oc1ccc(C[C@@H]2NC(=O)COc3ccc(cc3)C[C@@H](C(=O)O)NC(=O)[C@H](CCc3ccccc3)NC(=O)[C@@H](Cc3ccc(-c4ccccc4)cc3)NC2=O)cc1` [Compound 514], the IC50 is below 10 µM.

Consider `O=C1COc2ccc(cc2)C[C@@H](C(=O)O)NC(=O)[C@H](CCc2ccccc2)NC(=O)[C@@H](Cc2ccc(-c3cccnc3)cc2)NC(=O)[C@H](Cc2ccncc2)N1` [Compound 665], for which the IC50 was in the range of 10 to 30 µM.

With `O=C1CCC(=O)N[C@H](CC2CCCCC2)C(=O)N[C@@H](Cc2ccc(-c3ccccc3)cc2)C(=O)N[C@H](Cc2ccccc2)C(=O)N[C@H](C(=O)O)Cc2ccc(cc2)N1` [Compound 124] ([dCha][Bip][dF][Phe(4-NH2)]-OH; linker N-4 via Suc), the IC50 was above 100 µM.

`O=C(O)[C@@H]1Cc2ccc(cc2)NC(=O)[C@H](O)[C@@H](O)C(=O)N[C@H](Cc2ccc(F)cc2)C(=O)N[C@@H](Cc2ccc(-c3ccccc3)cc2)C(=O)N[C@H](Cc2ccccc2)C(=O)N1` [Compound 261]: the IC50 lay within 30 to 100 µM.

Turning to `O=C1COc2ccc(cc2)C[C@@H](C(=O)O)NC(=O)[C@H](Cc2ccccc2)NC(=O)[C@@H](Cc2ccc(-c3ccccc3)cc2)NC(=O)[C@H](Cc2ccncc2)N1` [Compound 646], the IC50 is below 10 µM.

On to `C[C@@H](NC(=O)[C@@H]1Cc2ccc(cc2)OCC(=O)N[C@@H](Cc2ccc(-c3ccccc3)cc2)C(=O)N[C@H](Cc2ccc(-c3ccccc3)cc2)C(=O)N[C@@H](CCc2ccccc2)C(=O)N1)C(=O)O` [Compound 577], for which the IC50 is below 10 µM.

Regarding `CC(=O)O[C@H]1C(=O)Nc2ccc(cc2)C[C@H](C(=O)N[C@@H](Cc2ccccc2)C(=O)O)NC(=O)[C@@H](Cc2ccccc2)NC(=O)[C@H](Cc2ccc(-c3ccccc3)cc2)NC(=O)[C@@H](Cc2cccs2)NC(=O)[C@@H]1OC(C)=O` [Compound 394] ([d2Thi][Bip][dF][dPhe(4-NH2)]F-OH; linker N-4 via Tartaroyl(2R,3R-(OAc)2)), the IC50 is below 10 µM.

In the case of `O=C(O)CCCNC(=O)[C@@H]1Cc2ccc(cc2)C(=O)N[C@H](CCc2ccccc2)C(=O)N[C@@H](Cc2ccc(-c3ccccc3)cc2)C(=O)N[C@H](Cc2ccccc2)C(=O)N1` [Compound 425] ([d(hPhe)][Bip][dF][Phe(4-COOH)][GABA]-OH; lactam N-4), the IC50 fell in the range of 30 to 100 µM.

`O=C1CCC(=O)N[C@H](Cc2ccccc2C(F)(F)F)C(=O)N[C@@H](Cc2ccc(C(F)(F)F)cc2)C(=O)N[C@H](Cc2ccccc2)C(=O)N[C@H](C(=O)O)Cc2ccc(cc2)N1` [Compound 163] ([dPhe(2-CF3)][Phe(4-CF3)][dF][Phe(4-NH2)]-OH; linker N-4 via Suc): the IC50 lay within 30 to 100 µM.
